Structures are written as SMILES.

Data set [1] concerns RPMI 8226 myeloma xenografts. In words: RPMI 8226 SCID mouse flank xenograft model. It is filed as in vivo. The conditions noted are these: 0.25 mg/kg intraperitoneally twice weekly, three weeks of treatment of established tumors, p<0.05. The procedure: FIG. 4. Patient myeloma cells treated in mixed culture are selectively killed by chaetocin in comparison to other bone marrow leukocytes, and chaetocin has in vivo anti-myeloma activity. A-C. Unsorted bone marrow leukocytes obtained from 4 patients with multiple myeloma were treated with 100 nM Chaetocin or diluent for 24 hours and then subjected to FACS analyses to examine induced cell death in various leukocyte subpopulations. […] Results from 4 unsorted patient marrow leukocyte samples are indicated in C, indicating selective killing of myeloma cells by chaetocin in mixed culture in all 4 examined patient samples. In A-C, surviving cells were defined as those with low annexin and 7-AAD staining. D. Chaetocin has in vivo anti-myeloma activity in the RRMI 8226 SCID flank xenograft mouse model. […]
In vivo experiments: The in vivo effects of chaetocin were preliminarily explored at Southern Research Institute with assistance from Dr. William Waud (Birmingham, Ala.) in SCID mice using subcutaneously flank-implanted RPMI 8226 myeloma xenografts using a twice-weekly intraperitoneal administration schedule, with chaetocin formulated in 25% DMSO and 75% PEG400. Tumor weights were calculated from volumes derived from direct tumor measurements. […]

Data set [2] concerns patient CD138+ myeloma cells and CD138- bone marrow cells. Format: cell-based, human. The following applies: 10 μM for 20 minutes, corrected for average cell volumes, 4 patients. The procedure:
FIG. 7. Chaetocin induces oxidative stress in A549 cells without appreciable depletion of intracellular reduced glutathione levels, while the selective cytotoxicity of chaetocin in freshly collected myeloma cells appears to be attributable to their increased sensitivity to oxidative stressors. […] Chaetocin-induced increased oxidative species are attenuated by co-treatment with 10 mM NAC (C). D. Summary of results from FACS indicating changes of oxidative species induced in response to various treatments. Results shown are representative of three independent FACS experiments as described in the text; *p<0.05, **p<0.01. E. Effects of chaetocin or hydrogen peroxide (in comparison to diluent) on ROS (superoxide) levels in U266 myeloma cells as assessed using FACS analyses and hydroethidium as an ROS-sensitive FACS probe. Error bars indicate one sample standard deviation, results replicated in triplicate; ***p<0.001. […] Glutathione levels were assessed by spectrophotometric assay as described below. […] Cells were treated with 10 μM chaetocin for 20 minutes prior to assay, and calculated intracellular chaetocin levels were measured by HPLC with adjusted for differences in average cell volume (calculated from measured cell radii ascertained via light microscopy). […]

Data set [3] can be described thus: Tolerability of IP chaetocin in mice. The conditions noted are these: 0.6 mg/kg and 0.25 mg/kg IP twice weekly for two weeks. Format: in vivo, mouse. The procedure: Subsequent in vivo work in mice utilized the following formulation: 0.06 mg/mL chaetocin in 20% PEG400 and 79.14% […] NaCl with 0.86% DMSO as a cosolvent. This system retains in vitro activity in cell culture models.

Another data set has as its target T1, thioredoxin (Escherichia coli, UniProt P0AA25).
T1 construct: purchased Promega (Madison, Wis.)
In words: Thioredoxin activity assay (insulin precipitation). The conditions noted are these: higher chaetocin concentrations; read-out: IC50, Trx activity inhibition. Format: biochemical, E. coli. The procedure: (§1) HeLa cells were obtained from ATCC.
Thioredoxin Activity Assay: The 100 μL reaction contained 100 mM potassium phosphate (pH 7.0), 2 mM EDTA, 0.13 mM bovine insulin, 3.9 μM E. coli thioredoxin and chaetocin as indicated. The reaction was initiated by addition of 0.33 mM DTT, and turbidity was monitored at 620 nm in a plate reader. The initial linear rate was calculated based on the slope of the line after an increase in absorbance (indicating precipitation of insulin) started to occur.

In a further data set the target is T2, TrxR1 (Rattus norvegicus, UniProt O89049).
T2 sequence (O89049 1-499): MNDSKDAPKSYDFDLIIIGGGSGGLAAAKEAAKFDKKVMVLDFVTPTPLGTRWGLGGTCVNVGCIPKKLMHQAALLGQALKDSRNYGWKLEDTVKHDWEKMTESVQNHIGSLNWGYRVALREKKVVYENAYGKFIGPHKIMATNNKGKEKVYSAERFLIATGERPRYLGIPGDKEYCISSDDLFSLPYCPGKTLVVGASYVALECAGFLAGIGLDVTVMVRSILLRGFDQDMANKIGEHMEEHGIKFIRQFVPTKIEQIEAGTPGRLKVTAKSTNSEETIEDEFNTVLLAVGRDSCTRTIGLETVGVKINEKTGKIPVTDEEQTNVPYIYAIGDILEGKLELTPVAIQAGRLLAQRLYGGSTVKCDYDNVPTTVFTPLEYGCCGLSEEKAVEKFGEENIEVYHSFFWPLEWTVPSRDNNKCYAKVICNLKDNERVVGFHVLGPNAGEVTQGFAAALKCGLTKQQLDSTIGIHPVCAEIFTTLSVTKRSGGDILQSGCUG
In words: Thioredoxin reductase activity assay (DTNB method). Format: biochemical. More on the design: rat liver thioredoxin reductase; purchased Sigma (St. Louis, Mo.). The conditions noted are these: cell-free; read-out: IC50, TrxR1-initiated turnover of DTNB. The procedure: as §1
Final concentrations were 0.0005 U/μL of enzyme and 0.24 mM NADPH in the presence of chaetocin as indicated in a 100 μL reaction. The reaction was started by the addition of DTNB (3 mM) and the change in absorbance at 405 nm was monitored in a plate reader. Activity was calculated as the increase in absorbance between 2 and 5 min after DTNB addition.

T1 sequence (P0AA25 whole entry): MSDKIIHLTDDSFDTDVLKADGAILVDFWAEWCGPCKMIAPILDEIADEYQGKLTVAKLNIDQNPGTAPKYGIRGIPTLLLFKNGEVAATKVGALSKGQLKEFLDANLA

As to `CN1C(=O)[C@@]23C[C@]4([C@]56C[C@@]78SS[C@@](CO)(C(=O)N7[C@H]5Nc5ccccc56)N(C)C8=O)c5ccccc5N[C@@H]4N2C(=O)[C@]1(CO)SS3` [chaetocin], the T/C values in data set [1] is reported as 50-60%. Besides, the “intracellular accumulation in CD138- leukocytes versus CD138+ myeloma cells” value in data set [2] is reported as “no indication of lessened intracellular accumulation”. Besides, the GI toxicity result in data set [3] was “some GI toxicity was noted”. The tolerability entry in data set [3] was “tolerated”. Moreover, the IC50 was approximately 90 µM on thioredoxin and approximately 4 µM at TrxR1.

One may read the IC50 as the midpoint of a concentration-inhibition curve.

These data come from patent US20090264421A1 (priority 2007, published 2009).
